Patent US20230095021A1, “MODULATORS OF TDP-43” (Alteron Therapeutics, Inc., priority 2019, published 2023)

Test system: BACE1
Assay: Screening for ALT-59 derivatives with BACE1 protein levels as indicator, U-87 MG cells
Format: cell-based
Conditions: 2 days, concentrations as indicated in FIGS. 15-17
Procedure: Additional experiments were performed to screen for compounds with higher potency and the ability to penetrate blood brain barrier using BACE1 protein levels as an indicator. U-87 MG cells were cultured as described previously and treated for 2 days with compounds at concentrations as indicated in FIGS. 15-17. Cells were then subjected to Western blotting analysis using anti-BACE1 and anti-beta-actin antibodies.

## COc1ccc(C2Nc3c(ccc4ccccc34)C3=C2C(=O)CCC3)cc1Br (stereo not drawn) [ALT-108, 6-(3-bromo-4-methoxyphenyl)-6,8,9,10-tetrahydrobenzo[c]phenanthridin-7(5H)-one]
  BACE1 protein expression: capable of lowering BACE1 expression

## CC1(C)CC(=O)C2=C(C1)c1c(ccc3ccccc13)NC2c1cccc(OC(F)(F)C(F)F)c1 (stereo not drawn) [ALT-110, 2,2-dimethyl-5-(3-(1,1,2,2-tetrafluoroethoxy)phenyl)-2,3,5,6-tetrahydrobenzo[a]phenanthridin-4(1H)-one]
  BACE1 protein expression: capable of lowering BACE1 expression

## CC1(C)CC(=O)C2=C(C1)C(c1ccc3c(c1)OCO3)Nc1ccc3ccccc3c12 (stereo not drawn) [ALT-201, 5-(benzo[d][1,3]dioxol-5-yl)-3,3-dimethyl-3,4,5,6-tetrahydrobenzo[a]phenanthridin-1(2H)-one]
  BACE1 protein expression: capable of lowering BACE1 expression

## CC1(C)CC(=O)C2=C(C1)c1c(ccc3ccccc13)NC2c1ccc(Br)s1 (stereo not drawn) [ALT-202, 5-(5-bromothiophen-2-yl)-2,2-dimethyl-2,3,5,6-tetrahydrobenzo[a]phenanthridin-4(1H)-one]
  BACE1 protein expression: capable of lowering BACE1 expression

## CC1(C)CC(=O)C2=C(C1)c1c(ccc3ccccc13)NC2c1ccc(Cl)c(Cl)c1 (stereo not drawn) [ALT-204, 5-(3,4-dichlorophenyl)-2,2-dimethyl-2,3,5,6-tetrahydrobenzo[a]phenanthridin-4(1H)-one]
  BACE1 protein expression: capable of lowering BACE1 expression

## CC1(C)CC(=O)C2=C(C1)c1cc3ccccc3cc1NC2c1ccc2c(c1)OCO2 (stereo not drawn) [ALT-205, 5-(benzo[d][1,3]dioxol-5-yl)-2,2-dimethyl-2,3,5,6-tetrahydrobenzo[b]phenanthridin-4(1H)-one]
  BACE1 protein expression: capable of lowering BACE1 expression

## CCOc1ccc(C2Nc3ccc4ccccc4c3C3=C2C(=O)CC(C)(C)C3)cc1OC (stereo not drawn) [ALT-207, 5-(4-ethoxy-3-methoxyphenyl)-2,2-dimethyl-2,3,5,6-tetrahydrobenzo[a]phenanthridin-4(1H)-one]
  BACE1 protein expression: capable of lowering BACE1 expression

## COc1cc(C2Nc3ccc4ccccc4c3C3=C2C(=O)CC(C)(C)C3)cc(Br)c1OC (stereo not drawn) [ALT-208, 5-(3-bromo-4,5-dimethoxyphenyl)-2,2-dimethyl-2,3,5,6-tetrahydrobenzo[a]phenanthridin-4(1H)-one]
  BACE1 protein expression: capable of lowering BACE1 expression

## CC1(C)CC(=O)C2=C(C1)c1c(ccc3ccccc13)NC2c1cccc(OCc2cc3c(cc2Cl)OCO3)c1 (stereo not drawn) [ALT-210, 5-(3-((6-chlorobenzo[d][1,3]dioxol-5-yl)methoxy)phenyl)-2,2-dimethyl-2,3,5,6-tetrahydrobenzo[a]phenanthridin-4(1H)-one]
  BACE1 protein expression: capable of lowering BACE1 expression

## COc1cc(C2Nc3ccc4ccccc4c3C3=C2C(=O)CC(C)(C)C3)cc2c1OCO2 (stereo not drawn) [ALT-211, 5-(7-methoxybenzo[d][1,3]dioxol-5-yl)-2,2-dimethyl-2,3,5,6-tetrahydrobenzo[a]phenanthridin-4(1H)-one]
  BACE1 protein expression: capable of lowering BACE1 expression

## CC1(C)CC(=O)C2=C(C1)c1c(ccc3ccccc13)NC2c1ccc(C(F)(F)F)cc1 (stereo not drawn) [ALT-212, 2,2-dimethyl-5-(4-(trifluoromethyl)phenyl)-2,3,5,6-tetrahydrobenzo[a]phenanthridin-4(1H)-one]
  BACE1 protein expression: capable of lowering BACE1 expression

## CC1(C)CC(=O)C2=C(C1)c1c(ccc3ccccc13)NC2c1cccc(C(F)(F)F)c1 (stereo not drawn) [ALT-215, 2,2-dimethyl-5-(3-(trifluoromethyl)phenyl)-2,3,5,6-tetrahydrobenzo[a]phenanthridin-4(1H)-one]
  BACE1 protein expression: capable of lowering BACE1 expression

## Cc1ccc(C2Nc3ccc4ccccc4c3C3=C2C(=O)CC(C)(C)C3)cc1 (stereo not drawn) [ALT-306, 2,2-dimethyl-5-(p-tolyl)-2,3,5,6-tetrahydrobenzo[a]phenanthridin-4(1H)-one]
  BACE1 protein expression: capable of lowering BACE1 expression

## COc1ccc(C2Nc3ccc4ccccc4c3C3=C2C(=O)CC(C)(C)C3)cc1Br (stereo not drawn) [ALT-307, 5-(3-bromo-4-methoxyphenyl)-2,2-dimethyl-2,3,5,6-tetrahydrobenzo[a]phenanthridin-4(1H)-one]
  BACE1 protein expression: capable of lowering BACE1 expression

## CC(C)c1ccc(C2Nc3ccc4ccccc4c3C3=C2C(=O)CC(C)(C)C3)cc1 (stereo not drawn) [ALT-309, 5-(4-isopropylphenyl)-2,2-dimethyl-2,3,5,6-tetrahydrobenzo[a]phenanthridin-4(1H)-one]
  BACE1 protein expression: capable of lowering BACE1 expression

## CSc1ccc(C2Nc3ccc4ccccc4c3C3=C2C(=O)CC(C)(C)C3)cc1 (stereo not drawn) [ALT-311, 2,2-dimethyl-5-(4-(methylthio)phenyl)-2,3,5,6-tetrahydrobenzo[a]phenanthridin-4(1H)-one]
  BACE1 protein expression: capable of lowering BACE1 expression

## O=C1CCCC2=C1C(c1ccc(O)c(O)c1)Nc1c2ccc2ccccc12 (stereo not drawn) [ALT-317, 6-(3,4-dihydroxyphenyl)-6,8,9,10-tetrahydrobenzo[c]phenanthridin-7(5H)-one]
  BACE1 protein expression: capable of lowering BACE1 expression

## CCN(CC)c1ccc(C2Nc3ccc4ccccc4c3C3=C2C(=O)CC(C)(C)C3)cc1 (stereo not drawn) [ALT-318, 5-(4-(diethylamino)phenyl)-2,2-dimethyl-2,3,5,6-tetrahydrobenzo[a]phenanthridin-4(1H)-one]
  BACE1 protein expression: capable of lowering BACE1 expression

## CC1CCN(c2ccc(C3Nc4ccc5ccccc5c4C4=C3C(=O)CC(C)(C)C4)cc2[N+](=O)[O-])CC1 (stereo not drawn) [ALT-322, 2,2-dimethyl-5-(4-(4-methylpiperidin-1-yl)-3-nitrophenyl)-2,3,5,6-tetrahydrobenzo[a]phenanthridin-4(1H)-one]
  BACE1 protein expression: capable of lowering BACE1 expression

## Cn1ccnc1Sc1ccc(C2Nc3ccc4ccccc4c3C3=C2C(=O)CC(C)(C)C3)cc1[N+](=O)[O-] (stereo not drawn) [ALT-324, 2,2-dimethyl-5-(4-((1-methyl-1H-imidazol-2-yl)thio)-3-nitrophenyl)-2,3,5,6-tetrahydrobenzo[a]phenanthridin-4(1H)-one]
  BACE1 protein expression: capable of lowering BACE1 expression

## Cc1ccc(C2Nc3c(ccc4ccccc34)C3=C2C(=O)CC(C)(C)C3)cc1 (stereo not drawn) [ALT-333, 9,9-dimethyl-6-(p-tolyl)-6,8,9,10-tetrahydrobenzo[c]phenanthridin-7(5H)-one]
  BACE1 protein expression: capable of lowering BACE1 expression

## C#CCOc1c(I)cc(C2Nc3ccc4ccccc4c3C3=C2C(=O)CC(C)(C)C3)cc1OC (stereo not drawn) [ALT-402, 5-(3-iodo-5-methoxy-4-(prop-2-yn-1-yloxy)phenyl)-2,2-dimethyl-2,3,5,6-tetrahydrobenzo[a]phenanthridin-4(1H)-one]
  BACE1 protein expression: capable of lowering BACE1 expression

## O=C1CCCC2=C1C(c1ccc3c(c1)OCO3)Nc1c2ccc2ncccc12 (stereo not drawn) [ALT-403, 6-(benzo[d][1,3]dioxol-5-yl)-6,8,9,10-tetrahydrobenzo[c][1,7]phenanthrolin-7(5H)-one]
  BACE1 protein expression: capable of lowering BACE1 expression

## CCN(CC)c1ccc(C2Nc3ccc4ncccc4c3C3=C2C(=O)CC(C)(C)C3)cc1 (stereo not drawn) [ALT-404, 8-(4-(diethylamino)phenyl)-11,11-dimethyl-8,10,11,12-tetrahydrobenzo[a][4,7]phenanthrolin-9(7H)-one]
  BACE1 protein expression: capable of lowering BACE1 expression
